In experiment [1] the test system is C. albicans. Put plainly: Sustained inhibition biofilm assay, fungal. The following applies: sustained inhibition assay; C. albicans; 1% amino acid (unless specifically noted); p≤0.001. Type of experiment: cell-based, Candida albicans. How it is done: (§1) Two types of biofilm assays were performed: a sustained inhibition assay and a disruption assay. The sustained inhibition assay assesses the compound's ability to prevent biofilm development throughout all stages of biofilm formation, while the disruption assay assesses the compound's ability to break up an existing mature biofilm. These assays are described in detail in the following article: Lohse, M. B., Gulati, M., Valle Arevalo, A., Fishburn, A., Johnson, A. D., and Nobile, C. […] Antimicrobial Agents and Chemotherapy 61: e02749-16.
(§2) All bacterial biofilm solutions were prepared in Trypic Soy Broth (TSB), supplemented with 1% glucose (henceforth referred to as TSB-G). All subsequent procedures were performed in a manner that maintained sterility. A solution of each amino acid to be tested was prepared in weight to volume concentrations ranging from 0.1-5.0%. Amino acids were also tested in combinations. Compound solutions were homogenized with gentle agitation in the dark (4° C., 24 hours) before use.
(§3) Fungal strains were streaked on Yeast Peptone Dextrose (YPD) agar plates and incubated at 30° C. for 48 hours. A single colony from each strain to be tested was inoculated into YPD broth and grown for 12 hours, at 30° C., shaking at 225 rpm. […] The cells were allowed to adhere to the plate for 90 minutes at 37° C. with shaking (350 rpm). […] The plate was further incubated for 24 hours at 37° C. with shaking (350 rpm). Media was carefully aspirated and the biofilm was measured by optical density at 600 nm. […] The cells were allowed to adhere to the plate for 90 minutes at 37° C. with shaking (350 rpm). […] The plate was further incubated for 24 hours at 37° C. with shaking (350 rpm). […] The plate was further incubated for 24 hours at 37° C. with shaking (350 rpm). Media was carefully aspirated and the biofilm was measured by optical density at 600 nm.

Experiment [2] has as its system fungal and bacterial biofilms. Put plainly: Biofilm assays (sustained inhibition and disruption), fungal and bacterial biofilms. As to conditions: single component on its own. Type of experiment: cell-based. How it is done: (§4) Two types of biofilm assays were performed: a sustained inhibition assay and a disruption assay. The sustained inhibition assay assesses the compound's ability to prevent biofilm development throughout all stages of biofilm formation, while the disruption assay assesses the compound's ability to break up an existing mature biofilm. These assays are described in detail in the following article: Lohse, M. B., Gulati, M., Valle Arevalo, A., Fishburn, A., Johnson, A. D., and Nobile, C. J. (2017) Assessment and optimizations of Candida albicans in vitro biofilm assays. Antimicrobial Agents and Chemotherapy 61: e02749-16.
(§5) For fungal biofilm assays, all solutions were prepared in RPMI 1640 medium. All bacterial biofilm solutions were prepared in Trypic Soy Broth (TSB), supplemented with 1% glucose (henceforth referred to as TSB-G). All subsequent procedures were performed in a manner that maintained sterility. A solution of each amino acid to be tested was prepared in weight to volume concentrations ranging from 0.1-5.0%. Amino acids were also tested in combinations. Compound solutions were homogenized with gentle agitation in the dark (4° C., 24 hours) before use.
All biofilm assays were performed using 384-well non-tissue culture treated polystyrene plates. The fungal species tested are as follows: Candida albicans, Candida guilhermondii, Candida parapsilosis, Candida glabrata, Candida tropicalis, Candida dubliniensis, and Candida auris. The bacterial species tested are as follows: Staphylococcus aureus (standard wild type and methicillin-resistant strain USA300), Escherichia coli, Pseudomonas aeruginosa and Staphylococcus epidermidis.
Fungal strains were streaked on Yeast Peptone Dextrose (YPD) agar plates and incubated at 30° C. for 48 hours. A single colony from each strain to be tested was inoculated into YPD broth and grown for 12 hours, at 30° C., shaking at 225 rpm. For the fungal biofilm inhibition assay, 1 μl of saturated overnight cell culture was added to either 80 μL of RPMI-1640 or RPMI-1640 supplemented with the amino acid compound solution to be tested, in a 384-well plate. The cells were allowed to adhere to the plate for 90 minutes at 37° C. with shaking (350 rpm). Loosely bound cells were washed once with phosphate buffered saline (PBS) and 80 ul of RPMI-1640, or RPMI-1640 supplemented with the amino acid compound solution was added to the plate. The plate was further incubated for 24 hours at 37° C. with shaking (350 rpm). Media was carefully aspirated and the biofilm was measured by optical density at 600 nm. Twelve replicates were performed for each tested condition and the reported values are normalized to the control (RPMI-1640 media only). For the fungal biofilm disruption assays, 80 μL of RPMI-1640 was added to the plate, along with 1 μL of overnight cell culture. The cells were allowed to adhere to the plate for 90 minutes at 37° C. with shaking (350 rpm). Loosely bound cells were washed once with PBS and 80 μL of RPMI-1640 was added to the plate. The plate was further incubated for 24 hours at 37° C. with shaking (350 rpm). Media was carefully aspirated from the mature biofilm and 80 μL of RPMI-1640, or RPMI-1640 supplemented with the amino acid compound solution to be tested, was gently added to the plate. The plate was further incubated for 24 hours at 37° C. with shaking (350 rpm). Media was carefully aspirated and the biofilm was measured by optical density at 600 nm. Twelve replicates were performed for each tested condition and the reported values are normalized to the control (RPMI-1640 media only).
Bacterial strains were streaked on Blood Agar plates (5% sheep blood in Tryptic Soy Agar) and incubated at 37° C. for 24 hours. A single colony from each strain to be tested was inoculated in a TSB broth and grown for 12 hours, at 37° C. with shaking (225 rpm).

Experiment [3] deals with bacteria (S. aureus) biofilm and fungal (C. albicans) biofilm. Put plainly: Disruption biofilm assay, bacterial and fungal taken together. As to conditions: disruption assay; bacterial and fungal biofilm; 1% amino acid (unless specifically noted); p≤0.001. Type of experiment: cell-based. How it is done:
as §4, §5
Fungal strains were streaked on Yeast Peptone Dextrose (YPD) agar plates and incubated at 30° C. for 48 hours. A single colony from each strain to be tested was inoculated into YPD broth and grown for 12 hours, at 30° C., shaking at 225 rpm. For the fungal biofilm inhibition assay, 1 μl of saturated overnight cell culture was added to either 80 μL of RPMI-1640 or RPMI-1640 supplemented with the amino acid compound solution to be tested, in a 384-well plate. […] Media was carefully aspirated and the biofilm was measured by optical density at 600 nm. […] Media was carefully aspirated and the biofilm was measured by optical density at 600 nm. […]
Bacterial strains were streaked on Blood Agar plates (5% sheep blood in Tryptic Soy Agar) and incubated at 37° C. for 24 hours. […] Media was carefully aspirated and the biofilm was measured by optical density at 600 nm. […]

Experiment [4] deals with C. albicans. Put plainly: Disruption biofilm assay, fungal. Type of experiment: cell-based, Candida albicans. As to conditions: disruption assay; C. albicans; 1% amino acid (unless specifically noted); p≤0.001. How it is done: as §1, §2, §3

As to `N[C@@H](CC(=O)O)C(=O)O` [Aspartic Acid, L-aspartic acid], the “Reduce F Biofilm” value in the experiment with C. albicans [1] and in the experiment with C. albicans [4] was “●● (two dots [ie. ••] signifies major effect (greater than about 30% change))” each time. Also, in experiment [2], the Effect on biofilms entry was “very active against biofilms”. In addition, the “Reduce Both” value in experiment [3] was “●● (two dots [ie. ••] signifies major effect (greater than about 30% change))”.

(Values after US11779559B2, “Compositions for treating fungal and bacterial biofilms and methods of using the same” (priority 2017, dated 2023).)
